Measurements: patent publication US20080050452A1, “METAL-CONTAINING FORMULATIONS AND METHODS OF USE” (priority 2006, published 2008)

How the values were obtained:
B dolosa = assay: Minimal bactericidal concentration (MBC) assay; assay type: cell-based, Burkholderia dolosa
Method: (§1) Minimal bactericidal concentration (MBC) assay—Overnight-grown MIC plates, prepared as described in Example 16, were evaluated to determine the MIC. Culture was then sampled from wells at and near the MIC using sterile inoculating loops, and transferred to fresh MHA plates to determine if viable bacteria remained. […] The MBC was determined as the well in the MIC plate which contained the lowest concentration of silver yielding no bacterial growth on the MHA plate.

K. pneumoniae = assay: Minimal bactericidal concentration (MBC) assay; assay type: cell-based, Klebsiella pneumoniae
Method: as §1

Escherichia coli = assay: MIC assay; assay type: cell-based
Pseudomonas aeruginosa = assay: MIC assay; assay type: cell-based; details: for NP212 MIC: P. aeruginosa isolate NP212; for NP213 MIC: P. aeruginosa isolate NP213; for NP214 MIC: P. aeruginosa isolate NP 214
Staph. aureus = assay: Minimal bactericidal concentration (MBC) assay; assay type: cell-based, Staphylococcus aureus
Method: as §1

Proteus mirabilis = assay: MIC assay; assay type: cell-based; details: Prot. mirabilis isolate NP405
Ps. aeruginosa = assay: Minimal bactericidal concentration (MBC) assay; assay type: cell-based, Pseudomonas aeruginosa
Method: as §1

Staphylococcus aureus = assay: MIC assay; assay type: cell-based; details: for NP101 MIC: Staph aureus isolate NP101; for NP102 MIC: Staph aureus isolate NP102; for NP103 MIC: Staph aureus isolate NP103
Citrobacter freundii = assay: MIC assay; assay type: cell-based; details: C. freundii isolate NP410
Klebsiella pneumoniae = assay: MIC assay; assay type: cell-based
Serratia marcescens = assay: MIC assay; assay type: cell-based
Streptococcus pyogenes = assay: MIC assay; assay type: cell-based
Streptococcus pneumoniae = assay: MIC assay; assay type: cell-based; details: solutions in 0.1 M lactate buffer pH 4.0
C. freundii = assay: Minimal bactericidal concentration (MBC) assay; assay type: cell-based, Citrobacter freundii; details: C. freundii isolate NP410
Method: as §1

Prot. mirabilis = assay: Minimal bactericidal concentration (MBC) assay; assay type: cell-based, Proteus mirabilis; details: Prot. mirabilis isolate NP405
Method: as §1

Ser. marcescens = assay: Minimal bactericidal concentration (MBC) assay; assay type: cell-based, Serratia marcescens
Method: as §1

B. multivorans = assay: Minimal bactericidal concentration (MBC) assay; assay type: cell-based, Burkholderia multivorans
Method: as §1

Burkholderia multivorans = assay: MIC assay; assay type: cell-based
Strep. pyogenes = assay: Minimal bactericidal concentration (MBC) assay; assay type: cell-based, Streptococcus pyogenes
Method: as §1

E. coli = assay: Minimal bactericidal concentration (MBC) assay; assay type: cell-based, Escherichia coli
Method: as §1

Staph epidermidis = assay: Minimal bactericidal concentration (MBC) assay; assay type: cell-based, Staphylococcus epidermidis
Method: as §1

Burkholderia dolosa = assay: MIC assay; assay type: cell-based
Enterobacter cloacae = assay: MIC assay; assay type: cell-based; details: Enterobacter cloacae
[1] = K. pneumoniae isolate NP403 (first listing)
[2] = K. pneumoniae isolate NP403 (second listing)
[3] = formulation type Water/Lecithin
[4] = Ps. aeruginosa ATCC type strain 27317
[5] = Staph. aureus ATCC type strain 6538
[6] = Staph. aureus ATCC type strain 700699
[7] = Ser. marcescens isolate NP402 (first listing)
[8] = Ser. marcescens isolate NP402 (second listing)
[9] = Ser. marcescens isolate NP408 (first listing)
[10] = Ser. marcescens isolate NP408 (second listing)

Which results are given for `O=[N+]([O-])[O-].[Ag+]` [AgNO3, silver nitrate]?
MBC (B dolosa; B dolosa isolate A3): 3 parts silver per million; MBC (B dolosa; B dolosa isolate A4): 2 parts silver per million; MBC (K. pneumoniae; K. pneumoniae isolate NP401): 3 parts silver per million; MBC (K. pneumoniae; [1]): 6 parts silver per million; MBC (K. pneumoniae; [2]): 3 parts silver per million; MBC (K. pneumoniae; K. pneumoniae isolate NP406): 1 parts silver per million; MIC (Escherichia coli; E. coli (ATCC), solutions in 0.1 M lactate buffer pH 4.0): 3 µg/mL; MIC (Escherichia coli; E. coli ATCC type strain 8739): 0.4 parts silver per million; MIC (Escherichia coli; E. coli ATCC type strain 43745): 1 parts silver per million; MIC (Escherichia coli; E. coli isolate NP412): 1 parts silver per million; MIC (Pseudomonas aeruginosa; P. aerug (ATCC), solutions in 0.1 M lactate buffer pH 4.0): 3 µg/mL; MIC (Pseudomonas aeruginosa; P. aerug. (clin.), solutions in 0.1 M lactate buffer pH 4.0): 3 µg/mL; NP212 MIC (Pseudomonas aeruginosa; formulation type Lactate): 2 ppm; NP212 MIC (Pseudomonas aeruginosa; [3]): 3 ppm; NP212 MIC (Pseudomonas aeruginosa; formulation type Water/PVA): 3 ppm; NP213 MIC (Pseudomonas aeruginosa; formulation type Lactate): 1 ppm; NP213 MIC (Pseudomonas aeruginosa; [3]): 1 ppm; NP213 MIC (Pseudomonas aeruginosa; formulation type Water/PVA): 1 ppm; NP214 MIC (Pseudomonas aeruginosa; formulation type Lactate): 1 ppm; NP214 MIC (Pseudomonas aeruginosa; [3]): 1 ppm; NP214 MIC (Pseudomonas aeruginosa; formulation type Water/PVA): 3 ppm; MIC (Pseudomonas aeruginosa; Ps. aeruginosa ATCC type strain 9027): 1 parts silver per million; MIC (Pseudomonas aeruginosa; [4]): 2 parts silver per million; MIC (Pseudomonas aeruginosa; Ps. aeruginosa isolate NP201): 1 parts silver per million; MIC (Pseudomonas aeruginosa; Ps. aeruginosa isolate NP204): 1 parts silver per million; MIC (Pseudomonas aeruginosa; Ps. aeruginosa isolate NP206): 1 parts silver per million; MBC (Staph. aureus; [5]): 6 parts silver per million; MBC (Staph. aureus; [6]): 6 parts silver per million; MBC (Staph. aureus; Staph. aureus isolate NP101): 11 parts silver per million; MBC (Staph. aureus; Staph. aureus isolate NP102): 6 parts silver per million; MBC (Staph. aureus; Staph. aureus isolate NP103): 6 parts silver per million; MIC (Proteus mirabilis): 6 parts silver per million; MBC (Ps. aeruginosa; [4]): 3 parts silver per million; MBC (Ps. aeruginosa; Ps. aeruginosa isolate NP201): 3 parts silver per million; MBC (Ps. aeruginosa; Ps. aeruginosa isolate NP204): 3 parts silver per million; MBC (Ps. aeruginosa; Ps. aeruginosa isolate NP206): 1 parts silver per million; MIC (Staphylococcus aureus; S. aureus (ATCC), solutions in 0.1 M lactate buffer pH 4.0): 11 µg/mL; MIC (Staphylococcus aureus; S. aureus (clin.), solutions in 0.1 M lactate buffer pH 4.0): 5 µg/mL; NP101 MIC (Staphylococcus aureus; formulation type Lactate): 9 ppm; NP101 MIC (Staphylococcus aureus; [3]): 11 ppm; NP101 MIC (Staphylococcus aureus; formulation type Water/PVA): 11 ppm; NP102 MIC (Staphylococcus aureus; formulation type Lactate): 9 ppm; NP102 MIC (Staphylococcus aureus; [3]): 11 ppm; NP102 MIC (Staphylococcus aureus; formulation type Water/PVA): 11 ppm; NP103 MIC (Staphylococcus aureus; formulation type Lactate): 9 ppm; NP103 MIC (Staphylococcus aureus; [3]): 11 ppm; NP103 MIC (Staphylococcus aureus; formulation type Water/PVA): 11 ppm; MIC (Staphylococcus aureus; [5]): 6 parts silver per million; MIC (Staphylococcus aureus; [6]): 3 parts silver per million; MIC (Staphylococcus aureus; Staph. aureus isolate NP101): 6 parts silver per million; MIC (Staphylococcus aureus; Staph. aureus isolate NP102): 6 parts silver per million; MIC (Staphylococcus aureus; Staph. aureus isolate NP103): 6 parts silver per million; MIC (Citrobacter freundii): 3 parts silver per million; MIC (Klebsiella pneumoniae; K. pneumoniae isolate NP401): 3 parts silver per million; MIC (Klebsiella pneumoniae; [1]): 6 parts silver per million; MIC (Klebsiella pneumoniae; [2]): 6 parts silver per million; MIC (Klebsiella pneumoniae; K. pneumoniae isolate NP406): 1 parts silver per million; MIC (Klebsiella pneumoniae; Klebsiella pneumoniae, aerobic conditions (+)): 3 µg/mL; MIC (Klebsiella pneumoniae; Klebsiella pneumoniae, anaerobic conditions (Aerobic −)): 3 µg/mL; MIC (Serratia marcescens; [7]): 6 parts silver per million; MIC (Serratia marcescens; [8]): 6 parts silver per million; MIC (Serratia marcescens; [9]): 6 parts silver per million; MIC (Serratia marcescens; [10]): 11 parts silver per million; MIC (Serratia marcescens; Serratia marcescens, aerobic conditions (+)): 6 µg/mL; MIC (Serratia marcescens; Serratia marcescens, anaerobic conditions (Aerobic −)): 13 µg/mL; MIC (Streptococcus pyogenes; S. pyog (clin. 303), solutions in 0.1 M lactate buffer pH 4.0): 3 µg/mL; MIC (Streptococcus pyogenes; S. pyog (clin. 304), solutions in 0.1 M lactate buffer pH 4.0): 5 µg/mL; MIC (Streptococcus pyogenes; Strep. pyogenes isolate NP303): 3 parts silver per million; MIC (Streptococcus pyogenes; Strep. pyogenes isolate NP304): 6 parts silver per million; MIC (Streptococcus pyogenes; Strep. pyogenes isolate NP306): 6 parts silver per million; MIC (Streptococcus pneumoniae; S. pneumo (clin 314)): 11 µg/mL; MIC (Streptococcus pneumoniae; S. pneumo (clin 315)): 21 µg/mL; MBC (C. freundii): 3 parts silver per million; MBC (Prot. mirabilis): 13 parts silver per million; MBC (Ser. marcescens; [7]): 6 parts silver per million; MBC (Ser. marcescens; [8]): 6 parts silver per million; MBC (Ser. marcescens; [9]): 6 parts silver per million; MBC (Ser. marcescens; [10]): 11 parts silver per million; MBC (B. multivorans; B. multivorans isolate B1): 3 parts silver per million; MBC (B. multivorans; B. multivorans isolate B2): 3 parts silver per million; MBC (B. multivorans; B. multivorans isolate B4): 3 parts silver per million; MIC (Burkholderia multivorans; B. multivorans isolate B1): 3 parts silver per million; MIC (Burkholderia multivorans; B. multivorans isolate B2): 3 parts silver per million; MIC (Burkholderia multivorans; B. multivorans isolate B4): 2 parts silver per million; MBC (Strep. pyogenes; Strep. pyogenes isolate NP303): 10 parts silver per million; MBC (Strep. pyogenes; Strep. pyogenes isolate NP304): 21 parts silver per million; MBC (Strep. pyogenes; Strep. pyogenes isolate NP306): 21 parts silver per million; MBC (E. coli; E. coli ATCC type strain 8739): 0.4 parts silver per million; MBC (E. coli; E. coli ATCC type strain 43745): 0.4 parts silver per million; MBC (E. coli; E. coli isolate NP412): 1 parts silver per million; MBC (Staph epidermidis; Staph epidermidis ATCC type strain 12228): 3 parts silver per million; MBC (Staph epidermidis; Staph epidermidis isolate NP136): 3 parts silver per million; MIC (Burkholderia dolosa; B dolosa isolate A3): 2 parts silver per million; MIC (Burkholderia dolosa; B dolosa isolate A4): 2 parts silver per million; MIC (Enterobacter cloacae; aerobic conditions (+)): 13 µg/mL; MIC (Enterobacter cloacae; anaerobic conditions (Aerobic −)): 25 µg/mL
